Literature values in patent US7851424B2, “Antimicrobial hand wash” (GOJO Industries, Inc., priority 2006, dated 2010).

SMILES: Oc1cc(Cl)ccc1Oc1ccc(Cl)cc1Cl [Triclosan, 2,4,4′-trichloro-2′hydroxy-diphenylether]
- pKa: 7.4
